Results on 13 molecules are retold here after PubChem BioAssay (NCI).

SMILES strings stand for the structures. Several values for one entry are separate records, joined by “and”; a condition that tells them apart may be missing. Identical values can stand only once.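 These data come from cells grown in 96-well plates and exposed to compound for 48 hours at five concentrations. GI50 is the concentration that inhibits growth by half. TGI is the concentration that stops growth completely.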

Among the test systems are SK-MEL-5 melanoma; SF-295 CNS; NCI-H460 lung; UO-31 renal; SK-MEL-2 melanoma; CAKI-1 renal; NCI-H522 lung; UACC-257 melanoma; BT-549 breast; OVCAR-3 ovarian.
Common to all, as to experiment: inhibition of tumour cell growth, NCI panel, 48 h

For the molecule `COc1cc(C(=O)N/N=C/c2ccc(N(C)C)cc2)cc(OC)c1OC`, the GI50 was 0.198 µM in the assay on SK-MEL-5 melanoma; 0.288 µM in the assay with SF-295 CNS; 0.376 µM in the assay with NCI-H460 lung; 0.656 µM with UO-31 renal; 1.15 µM in the assay on SK-MEL-2 melanoma; 3.7 µM in the assay with CAKI-1 renal. In addition, the GI50 with NCI-H522 lung was 0.161 µM; in the assay on BT-549 breast it was 0.696 µM; in the assay with OVCAR-3 ovarian it was 0.259 µM. The TGI in the assay on SK-MEL-5 melanoma was 1.16 µM; in the assay with NCI-H460 lung, 31.7 µM; in the assay with UO-31 renal it was more than 100 µM; with SK-MEL-2 melanoma, more than 81.3 µM; with CAKI-1 renal it was more than 100 µM; in the assay with NCI-H522 lung it was 0.937 µM. The results for the TGI in the assay with UACC-257 melanoma, with BT-549 breast and in the assay on OVCAR-3 ovarian were more than 100 µM, more than 26.7 µM and 0.605 µM, respectively.

Consider `N#C[Se]CCCNS(=O)(=O)C1CC2C=CC1C2` (centres undefined), for which the GI50 with SK-MEL-5 melanoma was 1.41 µM; with SF-295 CNS, 1.01 µM; in the assay on NCI-H460 lung, 0.316 µM; in the assay on UO-31 renal it was 0.338 µM; with SK-MEL-2 melanoma it was 2 µM; in the assay with CAKI-1 renal, 0.416 µM. Also, the GI50 was 1.78 µM in the assay with NCI-H522 lung, 0.648 µM in the assay with UACC-257 melanoma, 0.192 µM with BT-549 breast and 1.47 µM in the assay with OVCAR-3 ovarian. The TGI in the assay with SK-MEL-5 melanoma came to 2.95 µM; in the assay with SF-295 CNS, 2.43 µM; in the assay on NCI-H460 lung, 1.27 µM; with UO-31 renal it was 1.43 µM; in the assay with SK-MEL-2 melanoma it was 6.15 µM; with CAKI-1 renal, 1.59 µM. Further, the TGI was determined as 4.2 µM with NCI-H522 lung, 3.09 µM with UACC-257 melanoma, 0.388 µM in the assay on BT-549 breast and 3.1 µM with OVCAR-3 ovarian.

Turning to `Cn1c(=O)c(Oc2ccc(F)cc2F)cc2cnc(NC3CCS(=O)(=O)CC3)nc21`, the GI50 was more than 25 µM with SK-MEL-5 melanoma; more than 12.4 µM with SF-295 CNS; more than 25 µM with NCI-H460 lung; more than 25 µM with UO-31 renal; more than 25 µM with SK-MEL-2 melanoma; more than 25 µM with CAKI-1 renal. For the same molecule, the GI50 in the assay with NCI-H522 lung is more than 14.3 µM; with UACC-257 melanoma it was more than 25 µM; in the assay with BT-549 breast, more than 25 µM; with OVCAR-3 ovarian, more than 25 µM. In addition, the TGI in the assay with SK-MEL-5 melanoma, in the assay on SF-295 CNS, in the assay on NCI-H460 lung, in the assay with UO-31 renal, in the assay with SK-MEL-2 melanoma and in the assay with CAKI-1 renal was more than 25 µM throughout. Further, the TGI with NCI-H522 lung, in the assay on UACC-257 melanoma, with BT-549 breast and with OVCAR-3 ovarian was more than 25 µM in each case.

For `Cc1cc(C(C)(C)C)cc(CNC2CCCCC2)c1O`, the TGI is 30.9 µM in the assay with SK-MEL-5 melanoma; 31.7 µM in the assay with SF-295 CNS; 28.4 µM in the assay on NCI-H460 lung; 28.2 µM in the assay with UO-31 renal; 34 µM in the assay with SK-MEL-2 melanoma; 35.7 µM with CAKI-1 renal. Moreover, the TGI stood at 25.2 µM in the assay on NCI-H522 lung, 28.4 µM in the assay with UACC-257 melanoma, 30 µM in the assay on BT-549 breast and 34.2 µM in the assay on OVCAR-3 ovarian.

For the molecule `NC(N)=N/N=C/c1ccc(-c2ccc(-c3cc(Cl)cc(Cl)c3)s2)cc1`, the GI50 with SK-MEL-5 melanoma was 2.79 µM; in the assay with SF-295 CNS, 1.84 µM; in the assay with NCI-H460 lung, 1.7 µM; in the assay with UO-31 renal, 1.5 µM; in the assay with SK-MEL-2 melanoma, 2.08 µM; in the assay with CAKI-1 renal, 1.58 µM. Besides, the GI50 was 1.85 µM in the assay on NCI-H522 lung, 1.94 µM in the assay on UACC-257 melanoma, 2.37 µM with BT-549 breast and 1.71 µM with OVCAR-3 ovarian. Also, the TGI was found to be 7.85 µM with SK-MEL-5 melanoma; 3.47 µM with SF-295 CNS; 3.46 µM in the assay on NCI-H460 lung; 2.97 µM in the assay on UO-31 renal; 4.77 µM with SK-MEL-2 melanoma; 3.31 µM in the assay on CAKI-1 renal. The TGI in the assay on NCI-H522 lung stood at 4.45 µM; with UACC-257 melanoma, 4.22 µM; in the assay on BT-549 breast, 7.02 µM; in the assay with OVCAR-3 ovarian it was 3.27 µM.

On to `Cc1c(O)c2c(c(O)c1Br)C(=O)C=CC2=O`, for which the TGI is 0.974 µM and 1.78 µM in the assay on SK-MEL-5 melanoma; 3.15 µM and 28.2 µM with SF-295 CNS; 2.74 µM with NCI-H460 lung; 1.23 µM and 2.95 µM in the assay with UO-31 renal; 4.45 µM in the assay on SK-MEL-2 melanoma; 0.894 µM and 0.382 µM with CAKI-1 renal. For the same molecule, the TGI is 0.337 µM and 0.365 µM with NCI-H522 lung; 2.52 µM and 2.22 µM in the assay with UACC-257 melanoma; 1.3 µM in the assay on BT-549 breast; 1.9 µM and 0.788 µM with OVCAR-3 ovarian. The GI50 with SF-295 CNS is 14 µM; in the assay with UO-31 renal, 1.38 µM; in the assay with SK-MEL-2 melanoma, 1.93 µM; with CAKI-1 renal it was 0.16 µM; with NCI-H522 lung, 0.179 µM; in the assay with UACC-257 melanoma it was 0.924 µM. Besides, in the assay on OVCAR-3 ovarian, the GI50 is 0.241 µM.

Regarding `COc1ccc(Nc2cc(C)nc(NCCCNc3ccnc4cc(Cl)ccc34)n2)cc1`, the GI50 in the assay with SK-MEL-5 melanoma was 1.4 µM; with SF-295 CNS it was 1.34 µM; in the assay with NCI-H460 lung, 1.78 µM; in the assay on UO-31 renal, 1.52 µM; in the assay on SK-MEL-2 melanoma, 2.19 µM; in the assay on CAKI-1 renal, 1.5 µM. Besides, the GI50 was 2.04 µM in the assay with NCI-H522 lung, 1.84 µM in the assay with UACC-257 melanoma, 1.86 µM with BT-549 breast and 1.65 µM in the assay on OVCAR-3 ovarian. The TGI with SK-MEL-5 melanoma came out at 2.76 µM; in the assay with SF-295 CNS it was 2.73 µM; with NCI-H460 lung, 3.8 µM; with UO-31 renal, 2.95 µM; in the assay on SK-MEL-2 melanoma it was 3.76 µM; in the assay with CAKI-1 renal, 2.87 µM. For the same molecule, the TGI in the assay with NCI-H522 lung was determined as 3.65 µM; in the assay on UACC-257 melanoma, 3.51 µM; in the assay with BT-549 breast it was 4.67 µM; with OVCAR-3 ovarian, 3.12 µM.

`Cc1ccc2c(c1)S(=O)(=O)c1ccc3ccccc3c1N2`: the TGI with SK-MEL-5 melanoma, in the assay with SF-295 CNS, in the assay with NCI-H460 lung, in the assay with UO-31 renal, in the assay on SK-MEL-2 melanoma and in the assay with CAKI-1 renal was more than 100 µM throughout. The TGI in the assay with NCI-H522 lung, in the assay with UACC-257 melanoma, in the assay on BT-549 breast and in the assay with OVCAR-3 ovarian was more than 100 µM throughout.

As for `Cn1c(NCC(O)CN2CCCC2)cc(=O)n(C)c1=O` (centres undefined), the GI50 in the assay with SK-MEL-5 melanoma, with SF-295 CNS, in the assay with NCI-H460 lung, with UO-31 renal, in the assay on SK-MEL-2 melanoma and in the assay on CAKI-1 renal was more than 100 µM in each case. Besides, the GI50 in the assay on NCI-H522 lung, in the assay with UACC-257 melanoma, in the assay on BT-549 breast and in the assay on OVCAR-3 ovarian was more than 100 µM in each case. Besides, the TGI in the assay with SK-MEL-5 melanoma, with SF-295 CNS, in the assay on NCI-H460 lung, in the assay on UO-31 renal, in the assay with SK-MEL-2 melanoma and in the assay with CAKI-1 renal was more than 100 µM throughout. The TGI in the assay with NCI-H522 lung, with UACC-257 melanoma, in the assay with BT-549 breast and in the assay on OVCAR-3 ovarian was more than 100 µM each time.

Turning to `O=C(O)c1ccc(C(=O)O)c(C(=O)Nc2ccc3c(c2)C(=O)c2ccccc2-3)c1`, the TGI in the assay on SK-MEL-5 melanoma, with SF-295 CNS, in the assay on NCI-H460 lung, in the assay with UO-31 renal, in the assay with SK-MEL-2 melanoma and with CAKI-1 renal was more than 100 µM throughout. The TGI in the assay with NCI-H522 lung, in the assay on UACC-257 melanoma, with BT-549 breast and in the assay on OVCAR-3 ovarian was more than 100 µM throughout.

As for `O=C(Nc1ccc(/C=C/c2ccc(NC(=O)c3cc(S(=O)(=O)O)c4cccnc4c3O)cc2S(=O)(=O)O)c(S(=O)(=O)O)c1)c1cc(S(=O)(=O)O)c2cccnc2c1O`, the GI50 is 50.2 µM with SK-MEL-5 melanoma; 34.4 µM in the assay with SF-295 CNS; 22.9 µM with NCI-H460 lung; 24.5 µM with UO-31 renal; more than 53.8 µM in the assay on SK-MEL-2 melanoma; 34.3 µM in the assay with CAKI-1 renal. In addition, the GI50 was 15.3 µM in the assay with NCI-H522 lung, 25.8 µM in the assay on UACC-257 melanoma, 21.8 µM in the assay with BT-549 breast and more than 56.9 µM in the assay with OVCAR-3 ovarian. For the same molecule, the TGI is more than 64.3 µM in the assay with SK-MEL-5 melanoma; more than 76.8 µM in the assay on SF-295 CNS; more than 76.9 µM in the assay on NCI-H460 lung; more than 69 µM in the assay on UO-31 renal; more than 69.7 µM in the assay with SK-MEL-2 melanoma; more than 75.2 µM in the assay with CAKI-1 renal. Besides, the TGI in the assay with NCI-H522 lung was 47 µM; in the assay with UACC-257 melanoma, more than 56.3 µM; in the assay with BT-549 breast, more than 79.8 µM; with OVCAR-3 ovarian it was more than 72.2 µM.

With `COc1cc([N+](=O)[O-])c(OC)cc1-c1nc2sc(Cl)cn2c1/C=N/NC1=NCCN1`, the GI50 in the assay with SK-MEL-5 melanoma is 0.83 µM; in the assay with SF-295 CNS, 2.74 µM; in the assay on NCI-H460 lung it was 0.322 µM; in the assay with UO-31 renal, 0.966 µM; in the assay with SK-MEL-2 melanoma it was 22.9 µM; in the assay on CAKI-1 renal it was 12.9 µM. In addition, the GI50 was 2.93 µM in the assay with NCI-H522 lung, 2.23 µM in the assay with UACC-257 melanoma, 2.69 µM with BT-549 breast and 0.882 µM in the assay with OVCAR-3 ovarian. The TGI with SK-MEL-5 melanoma was 2.19 µM; in the assay with SF-295 CNS, 52.8 µM; in the assay on NCI-H460 lung, more than 100 µM; with SK-MEL-2 melanoma, more than 100 µM; in the assay on CAKI-1 renal it was 51.7 µM; in the assay on NCI-H522 lung, more than 29.7 µM. In addition, the TGI in the assay on UACC-257 melanoma came out at 4.43 µM; in the assay on BT-549 breast it was 5.95 µM; in the assay on OVCAR-3 ovarian, 2.62 µM.

Take `COc1cc2c(cc1Nc1nc(Nc3cccc(F)c3C(N)=O)c3cc[nH]c3n1)N(C(=O)CN1CCN(C(C)C)CC1)CC2`: the GI50 in the assay with SK-MEL-5 melanoma was 1.26 µM; in the assay with SF-295 CNS, 4.32 µM; in the assay with NCI-H460 lung it was 3.36 µM; in the assay with UO-31 renal, 3.92 µM; with SK-MEL-2 melanoma it was 3.3 µM; with CAKI-1 renal it was 4.94 µM. For the same molecule, the GI50 in the assay on NCI-H522 lung was 3.89 µM; in the assay with UACC-257 melanoma, 2.98 µM; with BT-549 breast, 3.95 µM; with OVCAR-3 ovarian it was 4.52 µM. For the same molecule, the TGI in the assay with SK-MEL-5 melanoma is 2.56 µM; with SF-295 CNS it was 9.26 µM; in the assay on NCI-H460 lung, 7 µM; in the assay with UO-31 renal it was 9.74 µM; in the assay on SK-MEL-2 melanoma, 6.95 µM; in the assay on CAKI-1 renal it was 11.9 µM. Also, the TGI was 7.69 µM in the assay on NCI-H522 lung, 6.3 µM with UACC-257 melanoma, 7.54 µM with BT-549 breast and 8.69 µM in the assay with OVCAR-3 ovarian.
